The source made the active and inactive calls. No cut-off for these calls is given here.
Tests used:
[1] = Cytotoxicity against human HT-29 cells assessed as reduction in cell viability; assay type: toxicity, cell-based
HT-29 [2] = test: Anti-necroptotic activity against TSZ induced necroptosis in human HT-29 cells preincubated for 12 hrs followed by TSZ addition by CellTiter-Glo luminescent cell viability assay; assay type: functional, cell-based
[3] = molecular target: T1, Receptor-interacting serine/threonine-protein kinase 1 (Homo sapiens, UniProt Q13546); test: Binding affinity to RIPK1 (unknown origin)
T1 sequence (Q13546 whole entry): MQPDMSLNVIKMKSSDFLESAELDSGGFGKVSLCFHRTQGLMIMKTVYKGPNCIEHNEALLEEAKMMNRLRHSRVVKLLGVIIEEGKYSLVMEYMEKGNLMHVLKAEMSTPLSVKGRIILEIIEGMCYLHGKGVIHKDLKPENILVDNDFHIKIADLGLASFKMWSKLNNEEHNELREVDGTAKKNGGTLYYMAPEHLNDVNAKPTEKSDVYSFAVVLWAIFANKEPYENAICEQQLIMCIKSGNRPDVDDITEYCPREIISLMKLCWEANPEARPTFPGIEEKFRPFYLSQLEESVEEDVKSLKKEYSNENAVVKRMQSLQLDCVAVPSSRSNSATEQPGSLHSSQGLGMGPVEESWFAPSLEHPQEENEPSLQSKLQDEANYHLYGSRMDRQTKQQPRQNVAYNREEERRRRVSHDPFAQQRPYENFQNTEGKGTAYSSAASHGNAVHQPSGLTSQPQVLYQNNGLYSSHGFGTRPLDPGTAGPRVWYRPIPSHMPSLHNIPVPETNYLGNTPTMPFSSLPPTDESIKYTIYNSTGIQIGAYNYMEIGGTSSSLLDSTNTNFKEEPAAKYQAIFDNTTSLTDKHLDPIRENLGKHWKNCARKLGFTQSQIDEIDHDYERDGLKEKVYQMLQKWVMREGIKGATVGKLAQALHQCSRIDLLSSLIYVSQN

Mus musculus [4] = organism: Mus musculus; test: Protection against TNF-induced SIRS in C57BL/6J mouse assessed as reduction in body temperature loss preincubated for 1 hr followed by mTNF-alpha addition measured after 6 hrs […]; assay type: functional, organism-based; settings: time 7.0 hrs
Mus musculus [5] = test: Protection against mTNF-alpha induced SIRS in C57BL/6J mouse assessed as increase in survival rate at 20 mg/kg preincubated for 1 hr followed by mTNF-alpha addition measured upto 60 hrs; assay type: functional; settings: time <= 61 hrs
[6] = molecular target: T2, Mixed lineage kinase domain-like protein (Homo sapiens) (UniProt Q8NB16); test: Inhibition of MLKL phosphorylation in TSZ induced human HT-29 cells incubated for 6 hrs by immunoblotting analysis; assay type: cell-based; settings: dose 25-100 nM
T2 sequence (whole entry): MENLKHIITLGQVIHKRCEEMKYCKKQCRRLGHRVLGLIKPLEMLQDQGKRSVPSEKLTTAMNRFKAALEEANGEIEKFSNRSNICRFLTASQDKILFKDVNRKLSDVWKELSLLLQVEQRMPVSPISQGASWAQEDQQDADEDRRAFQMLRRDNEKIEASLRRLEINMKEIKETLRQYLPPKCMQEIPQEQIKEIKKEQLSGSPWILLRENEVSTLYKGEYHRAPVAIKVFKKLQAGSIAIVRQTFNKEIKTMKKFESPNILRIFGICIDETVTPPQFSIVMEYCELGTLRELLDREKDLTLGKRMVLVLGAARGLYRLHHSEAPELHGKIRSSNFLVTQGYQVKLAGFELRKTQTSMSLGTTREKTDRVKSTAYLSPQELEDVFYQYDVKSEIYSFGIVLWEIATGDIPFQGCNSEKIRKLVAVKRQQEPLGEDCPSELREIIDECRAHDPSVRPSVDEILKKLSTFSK

U-937 = test: Anti-necroptotic activity against TSZ induced necroptosis in human U-937 cells preincubated with compound followed by TSZ addition for 12 hrs; assay type: functional, cell-based
HT-29 [7] = test: Anti-necroptotic activity against TSZ induced necroptosis in human HT-29 cells incubated for 12 hrs; assay type: functional, cell-based
[8] = molecular target: T3, Receptor-interacting serine/threonine-protein kinase 1 (Homo sapiens) (UniProt Q13546); test: Inhibition of RIPK1 phosphorylation in TSZ induced human HT-29 cells at 100 nM incubated for 2 to 6 hrs by immunoblotting analysis; assay type: cell-based; settings: time 2-6 hrs
T3 sequence (whole entry): T1 sequence (Q13546 whole entry)

[9] = molecular target: T4, Receptor-interacting serine/threonine-protein kinase 3 (Homo sapiens, UniProt Q9Y572); test: Binding affinity to RIPK3 (unknown origin)
Target sequence in this assay (Q9Y572 whole entry, the tested form may be a part): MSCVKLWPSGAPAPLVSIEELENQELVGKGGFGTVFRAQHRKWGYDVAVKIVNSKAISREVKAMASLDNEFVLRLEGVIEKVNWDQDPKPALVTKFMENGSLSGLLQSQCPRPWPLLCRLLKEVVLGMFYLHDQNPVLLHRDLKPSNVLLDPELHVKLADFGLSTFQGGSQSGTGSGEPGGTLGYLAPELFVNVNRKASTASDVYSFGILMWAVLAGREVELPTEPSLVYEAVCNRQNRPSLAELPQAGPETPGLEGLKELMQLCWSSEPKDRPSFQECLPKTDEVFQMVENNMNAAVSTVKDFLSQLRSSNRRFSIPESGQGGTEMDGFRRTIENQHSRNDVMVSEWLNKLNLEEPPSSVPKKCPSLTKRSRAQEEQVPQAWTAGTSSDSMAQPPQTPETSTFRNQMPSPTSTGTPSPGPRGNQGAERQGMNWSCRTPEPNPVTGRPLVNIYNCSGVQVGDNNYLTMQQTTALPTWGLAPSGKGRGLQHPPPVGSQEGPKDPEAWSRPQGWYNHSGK

[10] = molecular target: T2, Mixed lineage kinase domain-like protein (Homo sapiens); test: Inhibition of MLKL phosphorylation in TSZ induced human HT-29 cells at 100 nM incubated for 2 to 6 hrs by immunoblotting analysis; assay type: cell-based; settings: time 2-6 hrs
HT-29 [11] = test: Inhibition of TSZ induced necrosomes formation in human HT-29 cells at 100 nM incubated for 6 hrs by Western blotting analysis; assay type: functional, cell-based
Homo sapiens = organism: Homo sapiens; test: Selectivity ratio of Kd for RIPK3 (unknown origin) to Kd for RIPK1 (unknown origin)
Mus musculus [12] = test: Protection against mTNF-alpha induced SIRS in C57BL/6J mouse assessed as increase in survival rate at 10 mg/kg preincubated for 1 hr followed by mTNF-alpha addition measured upto 60 hrs; assay type: functional; settings: time <= 61 hrs
Mus musculus [13] = test: Protection against mTNF-alpha induced SIRS in C57BL/6J mouse assessed as increase in survival rate at 2.5 mg/kg preincubated for 1 hr followed by mTNF-alpha addition measured upto 60 hrs; assay type: functional; settings: time <= 61 hrs
[14] = molecular target: T4, Receptor-interacting serine/threonine-protein kinase 3; settings: HT-29, dose 100.0 nM, time 2-6 hrs
Target sequence in this assay (Q9Y572 whole entry, looked up, the tested form may be a part): as the sequence (Q9Y572 whole entry, the tested form may be a part) above
Description: Inhibition of RIPK3 phosphorylation in TSZ induced human HT-29 cells at 100 nM incubated for 2 to 6 hrs by immunoblotting analysis

Mus musculus [15] = test: Protection against mTNF-alpha induced SIRS in C57BL/6J mouse assessed as increase in survival rate at 5 mg/kg preincubated for 1 hr followed by mTNF-alpha addition measured upto 60 hrs; assay type: functional; settings: time <= 61 hrs
[16] = molecular target: T4, Receptor-interacting serine/threonine-protein kinase 3; settings: HT-29, dose 25-100 nM, time 6.0 hrs
Target sequence in this assay (Q9Y572 whole entry, looked up, the tested form may be a part): as the sequence (Q9Y572 whole entry, the tested form may be a part) above

[17] = molecular target: T3, Receptor-interacting serine/threonine-protein kinase 1 (Homo sapiens); test: Inhibition of RIPK1 phosphorylation in TSZ induced human HT-29 cells incubated for 6 hrs by immunoblotting analysis; assay type: cell-based; settings: dose 25-100 nM
HT-29 [18] = test: Anti-necroptotic activity against TCZ induced necroptosis in human HT-29 cells incubated for 16 hrs; assay type: functional, cell-based

Compound	CC50 [1]	EC50 (HT-29 [2])	other results
CN1C(=O)[C@@H](NC(=O)c2cc3cccc(-c4cccc(F)c4)c3[nH]2)COc2ccccc21	> 100 µM	96 nM	–
Cc1cccc(C)c1-c1cccc2cc(C(=O)N[C@H]3COc4ccccc4N(C)C3=O)[nH]c12	> 100 µM	1480 nM	–
COc1cccc(-c2cccc3cc(C(=O)N[C@H]4COc5ccccc5N(C)C4=O)[nH]c23)c1	> 100 µM	128 nM	–
CN1C(=O)[C@@H](NC(=O)c2cc3cccc(-c4cccc5ccccc45)c3[nH]2)COc2ccccc21	> 100 µM	956 nM	–
Cc1cccc(-c2cccc3cc(C(=O)N[C@H]4COc5ccccc5N(C)C4=O)[nH]c23)c1	> 100 µM	271 nM	–
Cc1ccc(-c2cccc3cc(C(=O)N[C@H]4COc5ccccc5N(C)C4=O)[nH]c23)c(C)c1	> 100 µM	4360 nM	–
CN1C(=O)[C@@H](NC(=O)c2cc3cccc(-c4ccc(F)cc4F)c3[nH]2)COc2ccccc21	> 100 µM	392 nM	Kd [3]: 200 nM
Cc1ccc(-c2cccc3cc(C(=O)N[C@H]4COc5ccccc5N(C)C4=O)[nH]c23)cc1	> 100 µM	1250 nM	–
CN1C(=O)[C@@H](NC(=O)c2cc3cccc(-c4ccccc4-c4ccccc4)c3[nH]2)COc2ccccc21	> 100 µM	> 10000 nM	–
Cc1ccc(C)c(-c2cccc3cc(C(=O)N[C@H]4COc5ccccc5N(C)C4=O)[nH]c23)c1	> 100 µM	2060 nM	–
CN1C(=O)[C@@H](NC(=O)c2cc3cccc(-c4ccc(-c5ccccc5)cc4)c3[nH]2)COc2ccccc21	> 100 µM	438 nM	–
CN1C(=O)[C@@H](NC(=O)c2cc3cccc(-c4ccc(C(F)(F)F)cc4)c3[nH]2)COc2ccccc21	> 100 µM	3850 nM	–
CN1C(=O)[C@@H](NC(=O)c2cc3cccc(-c4cc(F)ccc4F)c3[nH]2)COc2ccccc21	> 100 µM	88.5 nM	Kd [3]: 190 nM
CN1C(=O)[C@@H](NC(=O)c2n[nH]c(Cc3ccccc3)n2)COc2ccccc21 [GSK2982772]	–	4.1 nM	Activity (Mus musculus [4]): Active; Activity (Mus musculus [5]): 90%
CN1C(=O)[C@@H](NC(=O)c2cc3cccc(-c4cccc(-c5ccccc5)c4)c3[nH]2)COc2ccccc21	> 100 µM	> 10000 nM	–
CN1C(=O)[C@@H](NC(=O)c2nnc(Cc3ccccc3)[nH]2)COc2ccccc21 [GSK2982772]	> 50 µM	–	–
CN1C(=O)[C@@H](NC(=O)c2cc3cccc(-c4ccccc4)c3[nH]2)COc2ccccc21	> 100 µM	16.2 nM	Kd [3]: 190 nM; inhibition [6]: Dose-Dependent Effect; Activity (U-937): Dose-Dependent Effect; Activity (HT-29 [7]): Dose-Dependent Effect; inhibition [8]: Active; Kd [9]: 2400 nM; inhibition [10]: Active; Activity (Mus musculus [4]): Active; inhibition (HT-29 [11]): Active; Selectivity ratio (Homo sapiens): 8; Activity (Mus musculus [12]): 100%; Activity (Mus musculus [13]): 75%; inhibition [14]: Active; Activity (Mus musculus [15]): 100%; inhibition [16]: Dose-Dependent Effect; inhibition [17]: Dose-Dependent Effect; Activity (HT-29 [18]): Active
CN1C(=O)[C@@H](NC(=O)c2cc3cccc(-c4ccc(F)cc4)c3[nH]2)COc2ccccc21	> 100 µM	356 nM	–
CN1C(=O)[C@@H](NC(=O)c2cc3cccc(-c4cccc(F)c4F)c3[nH]2)COc2ccccc21	> 100 µM	145 nM	Kd [3]: 260 nM
CN1C(=O)[C@@H](NC(=O)c2cc3cccc(-c4ccc5ccccc5c4)c3[nH]2)COc2ccccc21	> 100 µM	18100 nM	–
COc1ccc(-c2cccc3cc(C(=O)N[C@H]4COc5ccccc5N(C)C4=O)[nH]c23)cc1	> 100 µM	3800 nM	–
CN1C(=O)[C@@H](NC(=O)c2cc3cccc(-c4ccccc4F)c3[nH]2)COc2ccccc21	> 100 µM	32.3 nM	Kd [3]: 190 nM
COc1ccccc1-c1cccc2cc(C(=O)N[C@H]3COc4ccccc4N(C)C3=O)[nH]c12	> 100 µM	775 nM	–
CN1C(=O)[C@@H](NC(=O)c2cc3cccc(-c4cccc(C(F)(F)F)c4)c3[nH]2)COc2ccccc21	> 100 µM	2060 nM	–
CN1C(=O)[C@@H](NC(=O)c2cc3cccc(-c4c(F)cccc4F)c3[nH]2)COc2ccccc21	> 100 µM	2170 nM	–
CN1C(=O)[C@@H](NC(=O)c2cc3cccc(-c4ccccc4C(F)(F)F)c3[nH]2)COc2ccccc21	> 100 µM	163 nM	–
Cc1ccccc1-c1cccc2cc(C(=O)N[C@H]3COc4ccccc4N(C)C3=O)[nH]c12	> 100 µM	45.4 nM	Kd [3]: 270 nM
CN1C(=O)[C@@H](NC(=O)c2cc3cccc(-c4ccc(F)c(F)c4)c3[nH]2)COc2ccccc21	> 100 µM	128 nM	–
Cc1ccc(-c2cccc3cc(C(=O)N[C@H]4COc5ccccc5N(C)C4=O)[nH]c23)cc1C	> 100 µM	1660 nM	–
Cc1cccc(-c2cccc3cc(C(=O)N[C@H]4COc5ccccc5N(C)C4=O)[nH]c23)c1C	> 100 µM	302 nM	–
